These are literature values, as cited in patent publication US8252791B2, “Purine compounds as cannabinoid receptor blockers” (Jenrin Discovery, Inc., priority 2008, dated 2012).

For the series the following is noted: patients with type 2 diabetes not treated with other anti-diabetic medications; after six months of treatment; baseline value 7.9; placebo group 0.3%.

Regarding `Cc1c(C(=O)NN2CCCCC2)nn(-c2ccc(Cl)cc2Cl)c1-c1ccc(Cl)cc1` [rimonabant], the HbA1c levels lowered is 0.8%.
